According to patent publication US20190151308A1 (Otsuka Pharmaceutical Co., Ltd., priority 2002, published 2019):

What was measured:
[1] = Augmentation therapy in major depressive disorder patients non-responsive or partially responsive to serotonin reuptake inhibitors; type: in vivo; details: 10 to 30 mg/day for 4 to 8 weeks, added to serotonin reuptake inhibitor therapy
Description: Only patients with such Hamilton scores receive treatment. These patients are interviewed to obtain a complete medical and psychiatric history.
Only patients with such Hamilton scores receive treatment. These patients are interviewed to obtain a complete medical and psychiatric history. Dehydroaripiprazole is first administered at a dose of 10 mg/day and increased to 30 mg/day as needed in the opinion of the monitoring psychiatrist. Dehydroaripiprazole is administered to these patients at a dose of from 10 mg/day to 30 mg/day for a period of at least four weeks, and up to eight weeks for patients who respond well to this treatment during the first four weeks.

[2] = Tail suspension test (TST); type: in vivo, mice; details: 3 mg/kg p.o. of each drug; for Immobility time (sec, mean ± SE): 60 min before suspension, 5-15 min period, N = 7-9; for % of shortening for immobility time: versus vehicle
From the text: The tail suspension test (TST) was originally described by Steru et al. […] The antidepressant activity of a test drug can be detected as an index of shortening the immobility time. This test is widely used as to an experimental animal model for predicting the antidepressant activity of a test drug in clinical settings. An automated device for performing the TST was developed by the authors of the TST (1989).^2) We improved this device and developed our own device incorporating an electric balance, an A/D converter, a testing box (30×25×25 cm), and a personal computer. The mouse was suspended from a hook hanging from the ceiling in the testing box by adhesive tape applied 20 mm from the tip of the tail. The duration of immobility was measured by the computer for a period of 15 min following the start of suspension. […] The experiments were carried out in a sound-proof room.

Compound | symptoms of depression (Hamilton test, CGI, AIMS, SAS, Barnes) [1] | Immobility time (sec, mean ± SE) [2] | % of shortening for immobility time [2]
O=C1CCc2ccc(OCCCCN3CCN(c4cccc(Cl)c4Cl)CC3)cc2N1 [Aripiprazole, 7-{4-[4-(2,3-Dichlorophenyl)-1-piperazinyl]-butoxy}-3,4-dihydrocarbostyril] | improvement in alleviation of symptoms of depression | 486.4 ± 12.3 s | 3%
CN(C)CCCC1(c2ccc(F)cc2)OCc2cc(C#N)ccc21 (centres unmarked) [Citalopram, citalopram] |  | 468.7 ± 24.2 s | 6%
